The source of these data is EPA's ToxValDB 9.5 (doi:10.2903/j.efsa.2007.107r).

What is called NOAEL is the highest dose or exposure tested at which no adverse effect was seen.

For data set [1], the system named is Typhlodromus pyri. The data set is described as follows: LR50; higher = less toxic. The note with it: acute; duration: 7 days; reproduction.
The test system of data set [2] is Apis mellifera. The note with it: acute; oral; unspecified; mortality.
Data set [3] relates to Oryctolagus sp. The note with it: developmental; development.
In data set [4] the test system is Daphnia magna. The note with it: chronic/long-term; duration: 21 days.
The subject of data set [5] is Colinus virginianus.
Data set [6] concerns Rattus norvegicus.
The subject of data set [7] is Oncorhynchus mykiss.
The subject of data set [8] is Tagia sp. The note with it: acute; duration: 14 days; mortality.

For the compound `CC(C)OC(=O)N[C@H](C(=O)N[C@H](C)c1nc2ccc(F)cc2s1)C(C)C` [Benthiavalicarb-isopropyl], in data set [1], the LR50 was found to be 290 g/ha. The LD50 was more than 100 µg/piece in data set [2]; more than 2000 mg/kg in data set [5] (acute, oral, mortality); more than 5000 mg/kg in data set [6] (acute, oral, mortality). The NOAEL in data set [3] was 20 mg/kg-day; in data set [6] (chronic, duration: 2 years, clinical chemistry), 9.9 mg/kg-day; in data set [6] (reproduction developmental, organ weight), 10 mg/kg-day. For the same compound, the NOEC in data set [4] was 3 mg/L; in data set [7] (chronic/long-term, duration: 28 days) it was 1 mg/L. Besides, the LC50 in data set [5] (acute, oral, diet, mortality) was more than 937 mg/kg-day; in data set [7] (acute, duration: 96 hours, mortality), more than 10 µg/mL; in data set [8], more than 500 mg/kg. Also, the NOEL in data set [5] (reproduction developmental, duration: 24 weeks) turned out to be 105 mg/kg-day.
